Measurements reported in patent US20190125753A1, “COMPOUNDS AND METHODS FOR INCREASING HEMATOPOIESIS” (University of Southern California, priority 2016, published 2019).

Tests used:
[1] = test system: bone marrow HSC; assay: Competitive repopulation assay after multi-dose 5-FU; format: in vivo, mouse; conditions: multi-dose YH250 with 5-FU
Text: At the last round of 5-FU treatment from FIG. 25A, bone marrow cells from survived animals were isolated (CD45.2) and mixed with competitor cells (CD45.1/CD45.2 hybrid) and injected to CD45.1 mice for competitive repopulation assay. This is to assess whether YH250, by multiple uses in this experiment setting, will result in changes of HSC activity and lead to HSC exhaustion (FIG. 26A).

[2] = test system: 5-FU treated mice; assay: Recovery from repeated 5-FU administration; format: in vivo, mouse
Protocol: To test if p300/-catenin antagonists can also promote multi-dosing chemotherapeutic drug induced bone marrow inhibition, 4 rounds of 5-FU (two doses in each round) administration were given to CD45.2 female mice. 150 mg/kg of 5-FU was given to mice for the first three rounds and then 200 mg/kg for the last round (4th round). The second dose of 5-FU was 6 days apart from the first dose of 5-FU in each round. Either DMSO or YH250 (2 mg/kg) were given to animals 24 hours after the first dose of 5-FU in each round of 5-FU administration (FIG. 25A). Animal body weight, survival rate and blood count changes were monitored. […] After each round of 5-FU administration, animals were allowed to recover to normal blood count before next round of 5-FU administration. FIG. 25E depicts the blood count at nadir points after each round of 5-FU administration.

[3] = test system: bone marrow cells; assay: Bone marrow CFC recovery after 7Gy radiation; format: in vivo, mouse
Protocol: According to particular aspects of the present invention, if YH250 can stimulate 7Gy irradiated animal HSPC proliferation/expansion, the compound may accelerate the recovery of the hematopoiesis from radiation damage. We first tested if YH250 treatment accelerates bone marrow cell CFC activities, the more differentiated cells. After 7Gy radiation and either DMSO or YH250 administration 24 hours post radiation, bone marrow cells were recovered at different time points (day 6, 11, 13, 15 post treatment) and CFC assays were performed (FIG. 19A). […] Consistent with increased colony numbers, there are more cells from plates of YH250 treated cells.

[4] = test system: bone marrow HSPC; assay: Multiple administration, competitive repopulation assay; format: in vivo, mouse
Protocol: The golden standard to determine HSPC number and activity is a competitive repopulation assay. The testing cells and competitor cells are mixed and transplanted to recipients to create an environment the testing cells compete with competitor cells to repopulate the recipients' hematopoietic system. The quantitative engraftment level reflects the testing cell stem/progenitor cell number.
In this study, donor mice (CD45.2) were treated with YH250 or DMSO every 48 hs for 4 round, then, bone marrow cells from the treated mice were recovered and mixed with competitive cells from non-treated normal mice for BMT to lethally irradiated recipients (FIG. 16A). Blood were collected periodically from recipient mice to determine HSPC activities.

[5] = test system: Human survivin promoter; assay: Survivin/luciferase reporter (Survivin-Hek-293); format: cell-based; conditions: Homo sapiens; Survivin-Hek-293, 24 hours; read-out: survivin/luciferase reporter: did not inhibit up to
Protocol: Hek293 cells were stably transfected with plasmid that contains multiple TCF/LEF fragments in front of Luciferase gene. Wnt/β-catenin activity was determined from luciferase expression levels. […] Briefly, stably transfected Hek-293, STFI.1 (Wnt/β-catenin-driven luciferase) and Survivin-Hek-293 (1 Kb Human survivin promoter-driven luciferase) cells were maintained in DMEM, 10% FBS, Pen/Strep with 400 μg/mL G418 or 2 μg/mL puromycin, respectively. To check the activity of ICG-001, YH249, and YH250, the cells were split into white-opaque 96-well plates at 10,000 cells per well and allowed to attach overnight. For SuperTOPLASH, the inhibitors were added to the cells and pre-incubated for 1 hour prior to stimulation with 10 mM Li Cl for 24 hours. Luciferase activity was read using BrightGlo (Promnega) luciferase substrate. For survivin/luc, the inhibitors were added to the cells and incubated for 24 hours prior to readout. To calculate IC5o values, the resulting curve was fitted to a four-parameter logistic model (4PL) using GraphPad Prism 5 software.
B. Survivin Expression Level: The Secondary Screen.
An endogenous human survivin 1 kb promoter was inserted before a luciferase gene. […] R1 and R2 were diversified in this study. Percent inhibition of luciferase activity was calculated according to the following equations; % inhibition of STF 1.1 reporter activity=(I−RLU(10 mM LiCl) treated/RLU(10 omM LiCl) vehicle×control)100, % inhibition of Survivin reporter activity=(1−RLUtreated/RLU vehicle control)×100. Error bars indicate the mean±SE of 3 separate experiments. Selectivity (FIG. 2H) was calculated by IC50 value for Survivin-Hek-293/IC50 value for STF 1.1.

[6] = test system: long-term repopulating HSC; assay: HSC differentiation assay (LTR-HSC from treated mice co-cultured with GFP bone marrow cells); format: in vivo, mouse; conditions: 2 mg/kg, 24 hours, then 2.5-3 days co-culture
Protocol: DMSO or YH250 (2 mg/kg) were administrated to female C57/BL mice. (Mice were purchased from JAX stock#000664 for CD45.2 or Stock#002014 for CD45.1). 24 hours later, long-term repopulating HSC (LTR-HSC, Lin-negt/Sca-1-posit/c-kit-posit/CD34negt/CD135negt/CD48negt/CD150posit cells were purified with fluorescent flow cytometry sorting (FACS). Then, the purified cells were co-cultured with whole bone marrow cells isolated from GFP-transgenic mice (C57BL/6Tg-UBC-GFP, JAX stock#004353), which serves as supporting system in stem cell medium (Stemspan, Stemcell Technologies, Cat#9650) supplemented with SCF (stem cell factor 10 ng/ml) and TPO (thrombopoietin, 10 ng/ml). 2.5-3 days after co-culture, cells were harvested and analyzed for surface markers of CD48 and CD202b (Tie-2) (FIG. 7A).

[7] = especially last three rounds of 5-FU

## COc1cccc(CNC(=O)N2C3CN(Cc4cc(Cl)cc(Cl)c4N(C)C)C(=O)[C@H](Cc4ccc(O)cc4)N3C(=O)CN2C)c1OC (some centres unmarked) [YH250]
[1]
  lineage bias in short-term and long-term repopulation: no lineage bias
[2]; 4 rounds of 5-FU
  RBC at nadir points: no significant effect on RBC
[2]; 5-FU 200 mg/kg (4th round), 60% died in DMSO group, p=0.04
  survival: all animals survived
[2]; [7]
  WBC at nadir point: significantly higher
  platelet at nadir point: significantly higher
[2]; from second round of 5-FU administration, 2 mg/kg each round
  body weight: less weight drop
[3]; 7Gy radiation
  cells from CFC plates: more cells
[3]; 14th day post 7Gy radiation
  colonies in CFC assay vs DMSO treated mice: significantly more colonies
[4]; LSK34negt135neg, LSK34neg135neg48negt150posit, LSK34posit135negt cells
  BrdU positive cells in HSPC compartment: more BrdU positive cells
[4]; donors treated every 48 hs for 4 round, p<0.01, n=5/group
  engraftment level at day 140 and 164 vs day 40 after BMT: significantly increased
[4]; no statistical significance (n=5)
  engraftment level vs DMSO treated cells: higher than DMSO treated cells
[5]
  IC50: > 20 µM
[6]; p=0.010
  CD48posit cells vs DMSO: significantly less
[6]; p=0.04
  non-differentiated CD48negt/CD202bposit cells vs DMSO: significantly more
